From patent EP2796135A1, “Use of trifluoroacetic acid and salts thereof to treat hypercholesterolemia” (POLICHEM S.A., priority 2013, dated 2014)
Where a name gives a salt, the structure may show the parent alone.

Legend:
[1] = preliminary oral study with ascending dose levels in minipigs (Example 13); format: in vivo, Göttingen minipig; conditions: in vivo, minipig, read-out: maximum tolerated dose
Description: (§1) A preliminary oral study of the Calcium salt of trifluoroacetic acid was performed in minipigs. One male and one female Göttingen minipig were daily treated by oral route with ascending dose levels of Calcium salt of trifluoroacetic acid, as indicated below.
(§2) The oral solutions were prepared as for Example 1.

[2] = test system: total cholesterol; experiment: as above; format: in vivo, Göttingen minipig; conditions: for decrease of total cholesterol: male
Description: as §1, §2

[3] = test system: total cholesterol; experiment: preliminary intravenous study in dogs, daily administration for 14 days (Example 14); format: in vivo, Beagle dogs; conditions: for reduction in total cholesterol: end of the 14 days of treatment
Description: A preliminary intravenous study of the Calcium salt of trifluoroacetic acid was performed in Beagle dogs after daily administration.
Dogs (2 animals/sex/group) were treated by intravenous slow injection (2.5 mL/min) with 100 and 200 mg/kg for 14 consecutive days.
(§3) The intravenous solutions were prepared as for Example 9.

[4] = test system: total cholesterol; experiment: intravenous study in dogs, daily administration for 4 weeks (Example 15); format: in vivo, Beagle dogs; conditions: for reduction in total cholesterol: intravenous, end of the 4 weeks of treatment
Description: An intravenous study of the Calcium salt of trifluoroacetic acid was performed in Beagle dogs after daily administration for 4 weeks.
Dogs (4 animals/sex/group) were treated by intravenous slow injection (2.5 mL/min) with 50, 100 and 200 mg/kg for 4 consecutive weeks.
as §3

[5] = ascending doses 50-1000 mg/kg/day
[6] = intravenous, 100 and 200 mg/kg, 14 consecutive days

O=C(O)C(F)(F)F [Calcium salt of trifluoroacetic acid, Calcium trifluoroacetate]
MTD [1]: ≥ 1000 mg/kg | changes in body weight, food consumption and water consumption [2, 5]: No changes of toxicological relevance | changes in hematology [2, 5]: No changes of note | mortality ([2]; ascending doses 50-1000 mg/kg/day, one male and one female minipig): No mortality occurred | decrease of total cholesterol ([2]; 150 mg/kg/day): 18% | decrease of total cholesterol ([2]; 200 mg/kg/day): 33% | decrease of total cholesterol ([2]; 300 mg/kg/day): 44% | decrease of total cholesterol ([2]; 600 mg/kg/day): 49% | decrease of total cholesterol ([2]; 1000 mg/kg/day): 56% | reduction in total cholesterol ([3]; females, intravenous, 100 mg/kg/day): 29% | reduction in total cholesterol ([3]; females, intravenous, 200 mg/kg/day): 16% | deaths ([3]; intravenous slow injection, 100 and 200 mg/kg, 14 consecutive days): No deaths occurred | differences in body weight, food consumption, physical examination and chemical chemistry, coagulation, organ weight [3, 6]: No significant differences | findings recorded in the study [3, 6]: limited to the site of injection | reduction in total cholesterol ([3]; males, intravenous, 100 mg/kg/day): 18% | reduction in total cholesterol ([3]; males, intravenous, 200 mg/kg/day): 21% | changes in body weight, food consumption and water consumption, hematological, chemical chemistry, fecal and urinalysis parameters ([4]; both sexes, intravenous, 50, 100 and 200 mg/kg, 4 weeks): No changes of toxicological relevance | reduction in total cholesterol ([4]; females, 50 mg/kg/day): 20% | reduction in total cholesterol ([4]; females, 100 mg/kg/day): 29% | reduction in total cholesterol ([4]; females, 200 mg/kg/day): 24% | deaths ([4]; intravenous slow injection, 50, 100 and 200 mg/kg, 4 consecutive weeks): No deaths occurred | organ weights ([4]; intravenous, 50, 100 and 200 mg/kg, 4 weeks): unaffected | findings at the site of injection and electrographic alterations ([4]; intravenous, 50, 100 and 200 mg/kg, 4 weeks, findings at the site of injection minimal to moderate): dose dependent and reversible | reduction in total cholesterol ([4]; males, 50 mg/kg/day): 9% | reduction in total cholesterol ([4]; males, 100 mg/kg/day): 21% | reduction in total cholesterol ([4]; males, 200 mg/kg/day): 15%
